Source: US7576087B2, “Heterocyclyl-3-sulfonylazaindole or -azaindazole derivatives as 5-hydroxytryptamine-6 ligands” (Wyeth, priority 2003, dated 2009)
Counter-ions that a name gives are not always drawn.

molecular target: human cloned 5-HT6 receptors (Homo sapiens, UniProt P50406)
Sequence (P50406 whole entry): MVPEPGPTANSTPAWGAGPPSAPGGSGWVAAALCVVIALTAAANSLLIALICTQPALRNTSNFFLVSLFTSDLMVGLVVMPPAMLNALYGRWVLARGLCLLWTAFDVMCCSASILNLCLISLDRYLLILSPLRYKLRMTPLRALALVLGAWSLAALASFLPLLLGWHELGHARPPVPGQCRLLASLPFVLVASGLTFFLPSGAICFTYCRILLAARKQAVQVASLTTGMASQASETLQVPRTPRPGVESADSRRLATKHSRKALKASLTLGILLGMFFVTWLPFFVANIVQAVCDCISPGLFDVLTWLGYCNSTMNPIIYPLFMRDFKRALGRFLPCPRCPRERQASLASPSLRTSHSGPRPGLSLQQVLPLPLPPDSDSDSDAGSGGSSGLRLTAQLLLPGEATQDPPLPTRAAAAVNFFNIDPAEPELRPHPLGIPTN

**Q.** `CN1CCN(c2ccc3[nH]nc(S(=O)(=O)c4ccccc4)c3n2)CC1` [Example 4, 5-(4-methylpiperazin-1-yl)-3-(phenylsulfonyl)-1H-pyrazolo-[4,3-b]pyridine hydrochloride] was tested. Which Ki did it give?
**A.** The Ki was 34 nM.

**Q.** For `O=S(=O)(c1ccccc1)c1c[nH]c2ccc(N3CCN(Cc4ccccc4)CC3)nc12` [Example 8, 5-(4-Benzylpiperazin-1-yl)-3-(phenylsulfonyl)-1H-pyrrolo[3,2-b]pyridine], which Ki is on record?
**A.** Its Ki is 30 nM.

**Q.** `O=S(=O)(c1ccccc1)c1c[nH]c2ccc(N3CCNCC3)nc12` [Example 9, 3-(Phenylsulfonyl)-5-piperazin-1-yl-1H-pyrrolo[3,2-b]pyridine Dihydrochloride] was tested. Which Ki did it give?
**A.** The Ki was 2 nM.
